Assay results published in patent publication US20200261534A1, “NEW TREATMENTS OF MULTIPLE MYELOMA” (priority 2017, published 2020).
Like-named read-outs stand apart in the source and are kept apart here. Starred links: 1 amine or outer side, 2 acyl side, 3 side chain; linkers in the order of their positions; H or OH if unused. Positions of bridges follow the written chain, without caps; N, C: chain ends. Non-standard residues stand in square brackets, D forms with d. Residues, ends and D or L forms follow the SMILES beside them. No end group written: not given here. ξ: configuration not given here. ξαMeNle(6-ylidene) = CC(CCCC=[*:3])(N[*:1])C(=O)[*:2]; X1 = CC(CCCCCCC=[*:3])(N[*:1])C(=O)[*:2]

Tests used:
[1] = test system: RAMOS, B lymphocyte (Burkitt's Lymphoma); assay: MTT viability assay, RAMOS; type: cell-based
Experimental: (§1) RAMOS, B lymphocyte (Burkitt's Lymphoma), ATCC: CRL-1596 […] During the amplification step and the assays adherent cells were rinsed with DPBS (Dulbecco's Phosphate Buffered Saline, Sigma D1283) three times and afterward treated for 5 minutes with trypsin ([…]) (Gibco-BRL, 15400054) in solution of DPBS at 37° C., and, once detached, transferred in the culturing medium. No-adherent cells were centrifuged and transferred in the culturing medium. Cells were counted in a Neubauer chamber after labelling with Tripan-Blue. […] Cells were seeded at a density of 10000 cells/well in 100 μl of medium in 96 well plates. […] Controls are the untreated cells. Each experiment was performed in triplicate. Cells were incubated with the compounds at the indicated concentrations during 24-72 h in incubator under CO2 atmosphere at 37° C. […] Stock solution of MTT (475989 Calbiochem) was 5 mg/ml in PBS. 1×.10 μl/well of MTT solution were added and the plate was incubated for 3-4 hr. […] Plates were incubated for 16 h at room temperature under orbital shaking. Absorbance at 570 nm was finally measured. […] The dose/response curve was fitted through the sigmoidal equation dose-response (variable slope) and the IC50 values were calculated as follow: Y=Bottom+(Top−Bottom)/(1+10^{[(LogIC50−X)*HillSlope]},

[2] = test system: MCF-7, epithelial (breast cancer); type: cell-based
Experimental: as §1, with “MCF-7, epithelial (breast cancer), ECACC: 86012803” for “RAMOS, B lymphocyte (Burkitt's Lymphoma), ATCC: CRL-1596”

[3] = Ramos, same protocol as Example 2, Table 6, read-out: Compound (IC50)
[4] = MCF7, same protocol as Example 2, Table 6, read-out: Compound (IC50)

Row | IC50 [1] | IC50 [2] | Compound | IC50 [1, 3] | IC50 [2, 4] | further results
1 | – | – | CCc1ccc(/C=C2/SC(=S)NC2=O)cc1 [10058-F4, reference compound] | – | – | IC50 ([1]; Ramos, MTT, incubation 24-72 h, Table 3, read-out: IC50 values): ~57 µM; IC50 ([2]; MCF7, MTT, incubation 24-72 h, Table 3, read-out: IC50 values): ~52 µM
2 | > 100 µM | > 100 µM | CC[C@H](C)[C@H](NC(=O)[C@@H](NC(=O)[C@@H](NC(=O)[C@H](CCCCN)NC(=O)[C@@H]1CCCN1C(=O)[C@H](C)N)C(C)C)C(C)C)C(=O)NC1(C)CCCCCCC=CCCCC(C)(C(=O)N[C@@H](CC(C)C)C(=O)N[C@@H](CO)C(=O)O)NC(=O)[C@H](Cc2ccc(O)cc2)NC(=O)[C@H](C)NC(=O)[C@H]([C@@H](C)O)NC(=O)[C@H](C)NC(=O)[C@H](CCCCN)NC(=O)[C@H](CCCCN)NC1=O (stereo partly shown) [IDP-S17, APKVVIXKKATAYXLS] (H-APKVVI[X1]KKATAY[ξαMeNle(6-ylidene)]LS-OH; staple 7-14; N-terminus and C-terminus assumed) | – | – | –
3 | > 100 µM | > 100 µM | CC[C@H](C)[C@@H]1NC(=O)[C@H](Cc2ccc(O)cc2)NC(=O)[C@H](C)NC(=O)[C@H]([C@@H](C)O)NC(=O)[C@H](C)NC(=O)[C@H](CCCCN)NC(=O)C(C)(NC(=O)[C@H](CC(C)C)NC(=O)[C@@H](NC(=O)[C@@H](NC(=O)[C@@H](NC(=O)[C@H](CCCCN)NC(=O)[C@@H]2CCCN2C(=O)[C@H](C)N)C(C)C)C(C)C)[C@@H](C)CC)CCCCCCC=CCCCC(C)(C(=O)N[C@@H](CO)C(=O)O)NC1=O (stereo partly shown) [IDP-S18, APKVVILXKATAYIXS] (H-APKVVIL[X1]KATAYI[ξαMeNle(6-ylidene)]S-OH; staple 8-15; N-terminus and C-terminus assumed) | – | – | –
4 | – | – | CC[C@H](C)[C@H](NC(=O)[C@H](Cc1ccc(O)cc1)NC(=O)[C@H](C)NC(=O)[C@@H](NC(=O)[C@H](C)NC(=O)C1(C)CCCC=CCCCCCCC(C)(NC(=O)[C@H](C)N)C(=O)N[C@@H](CCCCN)C(=O)N[C@@H](C(C)C)C(=O)N[C@@H](C(C)C)C(=O)N[C@@H]([C@@H](C)CC)C(=O)N[C@@H](CC(C)C)C(=O)N[C@@H](CCCCN)C(=O)N1)[C@@H](C)O)C(=O)N[C@@H](CC(C)C)C(=O)N[C@@H](CO)C(=O)O (stereo partly shown) [IDP-S19, AXKVVILKXATAYILS] (H-A[X1]KVVILK[ξαMeNle(6-ylidene)]ATAYILS-OH; staple 2-9) | > 100 µM | > 100 µM | –
5 | – | – | CC[C@H](C)[C@H](NC(=O)[C@H](Cc1ccc(O)cc1)NC(=O)C1(C)CCCC=CCCCCCCC(C)(NC(=O)[C@@H](NC(=O)[C@H](CCCCN)NC(=O)[C@@H]2CCCN2C(=O)[C@H](C)N)C(C)C)C(=O)N[C@@H]([C@@H](C)CC)C(=O)N[C@@H](CC(C)C)C(=O)N[C@@H](CCCCN)C(=O)N[C@@H](CCCCN)C(=O)N[C@@H](C)C(=O)N[C@@H]([C@@H](C)O)C(=O)N1)C(=O)N[C@@H](CC(C)C)C(=O)N[C@@H](CO)C(=O)O (stereo partly shown) [IDP-S21, APKVXILKKATXYILS] (H-APKV[X1]ILKKAT[ξαMeNle(6-ylidene)]YILS-OH; staple 5-12) | > 100 µM | > 100 µM | –
6 | > 100 µM | > 100 µM | CC[C@H](C)[C@H](NC(=O)C1(C)CCCC=CCCCCCCC(C)(NC(=O)[C@@H](NC(=O)[C@@H](NC(=O)[C@H](CCCCN)NC(=O)[C@@H]2CCCN2C(=O)[C@H](C)N)C(C)C)C(C)C)C(=O)N[C@@H](CC(C)C)C(=O)N[C@@H](CCCCN)C(=O)N[C@@H](CCCCN)C(=O)N[C@@H](C)C(=O)N[C@@H]([C@@H](C)O)C(=O)N[C@@H](C)C(=O)N1)C(=O)N[C@@H](CC(C)C)C(=O)N[C@@H](CO)C(=O)O (stereo partly shown) [IDP-S22, APKVVXLKKATAXILS] (H-APKVV[X1]LKKATA[ξαMeNle(6-ylidene)]ILS-OH; staple 6-13; N-terminus and C-terminus assumed) | – | – | –
7 | – | – | CC[C@H](C)[C@@H]1NC(=O)[C@H](Cc2ccc(O)cc2)NC(=O)[C@H](C)NC(=O)[C@H]([C@@H](C)O)NC(=O)[C@H](C)NC(=O)C(C)(NC(=O)[C@H](CCCCN)NC(=O)[C@H](CC(C)C)NC(=O)[C@@H](NC(=O)[C@@H](NC(=O)[C@@H](NC(=O)[C@H](CCCCN)NC(=O)[C@@H]2CCCN2C(=O)[C@H](C)N)C(C)C)C(C)C)[C@@H](C)CC)CCCCCCC=CCCCC(C)(C(=O)N[C@H](C(=O)O)C(C)C)NC(=O)[C@H](CC(C)C)NC1=O (stereo partly shown) [IDP-S23, APKVVILKXATAYILXV] (H-APKVVILK[X1]ATAYIL[ξαMeNle(6-ylidene)]V-OH; staple 9-16) | > 100 µM | > 100 µM | –
8 | > 100 µM | > 100 µM | RQIKIWFQNRRMKWKKNELKRAFAALRDQI [Int-HI-S6A-F8, reference compound] | – | – | –
